From ChEMBL document CHEMBL1201862, “PubChem BioAssay data set” (2004)
Active and inactive are the calls of the source.

Assays:
[1] = target: Intestinal-type alkaline phosphatase (Homo sapiens, UniProt P09923); test: Dose Response confirmation of uHTS hits from a small molecule inhibitors of human intestinal alkaline phosphatase via a luminescent assay. [Related pubchem assays (depositor defined):AID2544, AID2574]; assay type: functional
Large T antigen = Large T antigen (Simian virus 40, UniProt P03070); assay type: functional, Betapolyomavirus macacae;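 further: Confirmatory-stage PubChem screen for compounds that inhibit SV40 T antigen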
Sequence of Large T antigen (P03070 whole entry): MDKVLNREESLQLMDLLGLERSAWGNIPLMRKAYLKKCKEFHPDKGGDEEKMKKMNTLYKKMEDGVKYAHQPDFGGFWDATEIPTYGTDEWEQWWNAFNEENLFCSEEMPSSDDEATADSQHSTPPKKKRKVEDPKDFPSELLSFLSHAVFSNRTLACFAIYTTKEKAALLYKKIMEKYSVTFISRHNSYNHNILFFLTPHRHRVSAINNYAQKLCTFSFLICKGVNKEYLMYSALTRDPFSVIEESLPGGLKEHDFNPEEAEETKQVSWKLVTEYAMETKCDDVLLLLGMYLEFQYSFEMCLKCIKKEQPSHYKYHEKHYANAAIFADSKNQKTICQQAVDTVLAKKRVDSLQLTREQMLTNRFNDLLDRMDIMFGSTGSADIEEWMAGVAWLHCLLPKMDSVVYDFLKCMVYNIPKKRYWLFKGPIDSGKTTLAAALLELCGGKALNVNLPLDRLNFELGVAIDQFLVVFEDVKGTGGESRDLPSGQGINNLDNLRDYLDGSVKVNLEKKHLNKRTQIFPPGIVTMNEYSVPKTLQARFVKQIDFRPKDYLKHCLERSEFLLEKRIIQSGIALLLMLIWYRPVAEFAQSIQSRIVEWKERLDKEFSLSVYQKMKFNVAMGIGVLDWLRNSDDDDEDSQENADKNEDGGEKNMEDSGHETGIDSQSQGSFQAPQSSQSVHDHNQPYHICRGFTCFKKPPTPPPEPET

[2] = target: DNA dC->dU-editing enzyme APOBEC-3A (Homo sapiens, UniProt P31941); test: A3A deaminase inhibition for selectivity – biochemical, dose response (AID 504722); assay type: functional
Sequence of DNA dC->dU-editing enzyme APOBEC-3A (P31941 whole entry): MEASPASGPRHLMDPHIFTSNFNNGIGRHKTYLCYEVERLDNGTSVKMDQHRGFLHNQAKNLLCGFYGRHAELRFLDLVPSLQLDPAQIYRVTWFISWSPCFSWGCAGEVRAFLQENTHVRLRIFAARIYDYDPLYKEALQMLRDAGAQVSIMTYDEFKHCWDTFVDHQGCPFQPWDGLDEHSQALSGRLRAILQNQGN

[3] = target: DNA dC->dU-editing enzyme APOBEC-3G (Homo sapiens, UniProt Q9HC16); test: Dose Response confirmation of small molecule APOBEC3G DNA Deaminase Inhibitors via a fluorescence-based single-stranded DNA deaminase assay. [Related pubchem assays (depositor defined):AID493012, AID493028]; assay type: functional
Sequence of DNA dC->dU-editing enzyme APOBEC-3G (Q9HC16 whole entry): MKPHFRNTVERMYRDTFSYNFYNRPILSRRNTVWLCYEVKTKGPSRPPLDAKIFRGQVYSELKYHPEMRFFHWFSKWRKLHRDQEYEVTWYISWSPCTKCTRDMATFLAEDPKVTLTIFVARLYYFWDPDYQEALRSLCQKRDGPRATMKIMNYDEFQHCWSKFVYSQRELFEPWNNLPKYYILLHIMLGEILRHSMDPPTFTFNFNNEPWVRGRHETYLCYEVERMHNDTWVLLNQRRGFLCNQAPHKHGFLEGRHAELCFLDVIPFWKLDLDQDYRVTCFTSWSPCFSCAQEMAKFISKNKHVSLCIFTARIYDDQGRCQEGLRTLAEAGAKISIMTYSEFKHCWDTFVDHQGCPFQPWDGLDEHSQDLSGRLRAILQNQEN

BJ [4] = test: BJ-TERT fibroblast viability loss – cell-based, RAS-independent, luminescence, dose response (AID 1933); assay type: functional; settings: Homo sapiens
BJ [5] = test: cells; assay type: functional, cell-based; settings: Homo sapiens
[6] = Trypanosoma cruzi growth suppression in host cells – NIH3T3 host cells, beta-gal luminescence, confirmation (AID 2044); assay type: functional, cell-based;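 further: intracellular parasites grown in NIH/3T3 mouse fibroblasts as host cells; luminescent beta-galactosidase reporter signal from transgenic T. cruzi replicating inside host cells; inhibitors lower the luminescence signal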
[7] = NIH3T3 cell viability loss – ATP luminescence, mouse fibroblasts, counter-screen, dose response (AID 2010); assay type: functional, cell-based;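 further: cells exposed to compound for about 90 hours before reading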
BJ [8] = test: BJ-TERT-LT-ST fibroblast viability loss – cell-based, RAS-independent, luminescence, dose response (AID 1935); assay type: functional; settings: Homo sapiens;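 further: BJ fibroblasts immortalized with TERT plus LT and ST oncogenes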
[9] = DRD fibroblast viability loss – cell-based, non-viral oncogenic, luminescence, dose response (AID 1934); assay type: functional; settings: Homo sapiens
[10] = HEK-293T cell viability reduction – luminescence, B-cell screen hits, cytotoxicity control for BCR NF-kB inhibitor project, dose response (AID 489021); assay type: functional, cell-based;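 further: HEK-293T cells carrying an NF-kB luciferase reporter; cells exposed to compound for about 14 hours before viability readout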
[11] = target: T1, Replicative DNA helicase DnaB (Mycobacterium tuberculosis, UniProt P9WMR3); test: DnaB intein splicing inhibitors, dose response, biochemical, cell-free fluorescence (AID 449749); assay type: functional
T1 sequence (P9WMR3 whole entry): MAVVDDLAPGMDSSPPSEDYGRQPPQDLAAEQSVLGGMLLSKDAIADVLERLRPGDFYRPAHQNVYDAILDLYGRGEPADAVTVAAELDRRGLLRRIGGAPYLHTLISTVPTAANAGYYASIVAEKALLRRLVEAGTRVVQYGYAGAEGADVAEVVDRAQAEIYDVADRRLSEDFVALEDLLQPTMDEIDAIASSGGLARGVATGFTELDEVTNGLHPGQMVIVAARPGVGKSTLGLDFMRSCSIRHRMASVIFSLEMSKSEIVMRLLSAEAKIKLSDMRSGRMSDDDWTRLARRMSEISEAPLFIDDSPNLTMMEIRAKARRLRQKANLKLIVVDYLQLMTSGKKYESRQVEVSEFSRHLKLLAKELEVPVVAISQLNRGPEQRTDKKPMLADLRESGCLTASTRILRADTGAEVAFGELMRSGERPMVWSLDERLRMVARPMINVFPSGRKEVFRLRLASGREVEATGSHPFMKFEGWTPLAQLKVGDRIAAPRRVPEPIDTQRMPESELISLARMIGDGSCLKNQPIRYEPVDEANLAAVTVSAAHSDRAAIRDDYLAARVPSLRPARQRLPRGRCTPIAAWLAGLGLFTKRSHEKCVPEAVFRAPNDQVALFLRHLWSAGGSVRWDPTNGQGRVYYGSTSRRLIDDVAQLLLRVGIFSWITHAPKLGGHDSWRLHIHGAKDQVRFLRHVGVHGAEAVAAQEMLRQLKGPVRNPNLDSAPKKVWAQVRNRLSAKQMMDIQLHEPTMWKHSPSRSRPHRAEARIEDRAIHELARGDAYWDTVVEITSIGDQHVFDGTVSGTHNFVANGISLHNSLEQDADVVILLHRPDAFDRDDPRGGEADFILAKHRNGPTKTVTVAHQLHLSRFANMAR

Protein RecA = target: T2, Protein RecA (Mycobacterium tuberculosis, UniProt P9WHJ3); test: Fluorescence Cell-Free Homogeneous Dose Retest to Identify Inhibitors of RecA-Intein Splicing Activity. [Related pubchem assays (depositor defined):AID2097, AID2223, AID489010, AID492950]; assay type: functional
T2 sequence (P9WHJ3 whole entry): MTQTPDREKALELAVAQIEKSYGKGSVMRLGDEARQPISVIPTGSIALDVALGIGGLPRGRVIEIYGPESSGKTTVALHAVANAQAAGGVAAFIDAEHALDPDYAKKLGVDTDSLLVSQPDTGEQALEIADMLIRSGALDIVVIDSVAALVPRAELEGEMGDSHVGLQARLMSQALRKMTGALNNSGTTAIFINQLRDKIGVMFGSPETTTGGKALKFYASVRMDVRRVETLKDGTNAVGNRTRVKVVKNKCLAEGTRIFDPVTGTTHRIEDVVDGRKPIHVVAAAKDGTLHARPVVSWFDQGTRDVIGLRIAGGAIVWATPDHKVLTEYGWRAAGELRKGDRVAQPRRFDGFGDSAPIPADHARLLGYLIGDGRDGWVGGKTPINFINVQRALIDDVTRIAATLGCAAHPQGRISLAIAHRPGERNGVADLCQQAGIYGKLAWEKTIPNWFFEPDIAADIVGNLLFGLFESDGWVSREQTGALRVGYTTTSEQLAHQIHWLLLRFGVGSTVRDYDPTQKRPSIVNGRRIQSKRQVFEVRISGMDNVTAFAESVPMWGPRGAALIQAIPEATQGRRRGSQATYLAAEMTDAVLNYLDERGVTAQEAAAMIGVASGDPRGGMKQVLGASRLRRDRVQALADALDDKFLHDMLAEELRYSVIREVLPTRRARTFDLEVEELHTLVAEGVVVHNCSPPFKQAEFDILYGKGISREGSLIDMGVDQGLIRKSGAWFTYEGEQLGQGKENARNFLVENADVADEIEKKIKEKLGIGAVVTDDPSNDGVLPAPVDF

Protein Wnt-3a = Protein Wnt-3a (Mus musculus, UniProt P27467); test: antagonism of Wnt3a pathway luciferase reporter – Wnt-LIGHT cells, luminescence, selectivity assay for Gli-SUFU antagonist project, dose response (AID 651570); assay type: functional; settings: read-out: IC50_Mean;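 further: Wnt-LIGHT reporter cells stimulated with conditioned medium from Wnt3a-producing cells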
[12] = target: Glyceraldehyde-3-phosphate dehydrogenase (Homo sapiens, UniProt P04406)
Sequence of Glyceraldehyde-3-phosphate dehydrogenase (P04406 whole entry): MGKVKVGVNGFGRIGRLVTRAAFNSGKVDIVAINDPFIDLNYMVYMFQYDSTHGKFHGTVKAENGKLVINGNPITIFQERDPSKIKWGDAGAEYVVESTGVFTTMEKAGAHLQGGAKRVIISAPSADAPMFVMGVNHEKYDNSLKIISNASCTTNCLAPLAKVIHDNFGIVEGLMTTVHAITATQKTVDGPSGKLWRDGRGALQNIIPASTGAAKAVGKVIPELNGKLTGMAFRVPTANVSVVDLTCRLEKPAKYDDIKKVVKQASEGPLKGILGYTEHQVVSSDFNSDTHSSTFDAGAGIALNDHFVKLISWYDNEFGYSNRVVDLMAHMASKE

[13] = target: T3, Alkaline phosphatase, tissue-nonspecific isozyme (Homo sapiens, UniProt P05186); test: potency against alkaline phosphatase TNAP – biochemical, luminescent, dose response, SAR follow-up (AID 1056)
T3 sequence (P05186 whole entry): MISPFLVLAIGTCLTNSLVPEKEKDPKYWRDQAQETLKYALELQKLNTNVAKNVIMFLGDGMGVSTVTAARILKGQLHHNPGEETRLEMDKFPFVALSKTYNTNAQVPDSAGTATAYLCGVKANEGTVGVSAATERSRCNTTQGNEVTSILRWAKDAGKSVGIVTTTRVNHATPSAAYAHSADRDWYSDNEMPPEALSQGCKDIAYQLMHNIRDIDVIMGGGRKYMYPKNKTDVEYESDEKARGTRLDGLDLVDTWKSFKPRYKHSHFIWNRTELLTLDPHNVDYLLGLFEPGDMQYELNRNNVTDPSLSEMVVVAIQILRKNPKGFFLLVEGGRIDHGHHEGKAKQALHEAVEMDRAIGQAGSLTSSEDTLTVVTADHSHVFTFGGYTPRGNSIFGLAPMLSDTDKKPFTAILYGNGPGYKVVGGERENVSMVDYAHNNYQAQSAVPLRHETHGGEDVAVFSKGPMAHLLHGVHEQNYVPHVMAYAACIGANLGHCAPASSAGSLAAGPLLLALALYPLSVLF

[14] = A Cell Based Secondary Assay To Explore Cytotoxicity of Compounds that Sensitize Mycobacterium Tuberculosis to Beta-Lactam Antibiotics.; assay type: functional
[15] = target: Voltage-dependent T-type calcium channel subunit alpha-1H (Homo sapiens, UniProt O95180); assay type: functional;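 further: channel activity triggered by adding a high calcium stimulation buffer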
Sequence of Voltage-dependent T-type calcium channel subunit alpha-1H (O95180 whole entry): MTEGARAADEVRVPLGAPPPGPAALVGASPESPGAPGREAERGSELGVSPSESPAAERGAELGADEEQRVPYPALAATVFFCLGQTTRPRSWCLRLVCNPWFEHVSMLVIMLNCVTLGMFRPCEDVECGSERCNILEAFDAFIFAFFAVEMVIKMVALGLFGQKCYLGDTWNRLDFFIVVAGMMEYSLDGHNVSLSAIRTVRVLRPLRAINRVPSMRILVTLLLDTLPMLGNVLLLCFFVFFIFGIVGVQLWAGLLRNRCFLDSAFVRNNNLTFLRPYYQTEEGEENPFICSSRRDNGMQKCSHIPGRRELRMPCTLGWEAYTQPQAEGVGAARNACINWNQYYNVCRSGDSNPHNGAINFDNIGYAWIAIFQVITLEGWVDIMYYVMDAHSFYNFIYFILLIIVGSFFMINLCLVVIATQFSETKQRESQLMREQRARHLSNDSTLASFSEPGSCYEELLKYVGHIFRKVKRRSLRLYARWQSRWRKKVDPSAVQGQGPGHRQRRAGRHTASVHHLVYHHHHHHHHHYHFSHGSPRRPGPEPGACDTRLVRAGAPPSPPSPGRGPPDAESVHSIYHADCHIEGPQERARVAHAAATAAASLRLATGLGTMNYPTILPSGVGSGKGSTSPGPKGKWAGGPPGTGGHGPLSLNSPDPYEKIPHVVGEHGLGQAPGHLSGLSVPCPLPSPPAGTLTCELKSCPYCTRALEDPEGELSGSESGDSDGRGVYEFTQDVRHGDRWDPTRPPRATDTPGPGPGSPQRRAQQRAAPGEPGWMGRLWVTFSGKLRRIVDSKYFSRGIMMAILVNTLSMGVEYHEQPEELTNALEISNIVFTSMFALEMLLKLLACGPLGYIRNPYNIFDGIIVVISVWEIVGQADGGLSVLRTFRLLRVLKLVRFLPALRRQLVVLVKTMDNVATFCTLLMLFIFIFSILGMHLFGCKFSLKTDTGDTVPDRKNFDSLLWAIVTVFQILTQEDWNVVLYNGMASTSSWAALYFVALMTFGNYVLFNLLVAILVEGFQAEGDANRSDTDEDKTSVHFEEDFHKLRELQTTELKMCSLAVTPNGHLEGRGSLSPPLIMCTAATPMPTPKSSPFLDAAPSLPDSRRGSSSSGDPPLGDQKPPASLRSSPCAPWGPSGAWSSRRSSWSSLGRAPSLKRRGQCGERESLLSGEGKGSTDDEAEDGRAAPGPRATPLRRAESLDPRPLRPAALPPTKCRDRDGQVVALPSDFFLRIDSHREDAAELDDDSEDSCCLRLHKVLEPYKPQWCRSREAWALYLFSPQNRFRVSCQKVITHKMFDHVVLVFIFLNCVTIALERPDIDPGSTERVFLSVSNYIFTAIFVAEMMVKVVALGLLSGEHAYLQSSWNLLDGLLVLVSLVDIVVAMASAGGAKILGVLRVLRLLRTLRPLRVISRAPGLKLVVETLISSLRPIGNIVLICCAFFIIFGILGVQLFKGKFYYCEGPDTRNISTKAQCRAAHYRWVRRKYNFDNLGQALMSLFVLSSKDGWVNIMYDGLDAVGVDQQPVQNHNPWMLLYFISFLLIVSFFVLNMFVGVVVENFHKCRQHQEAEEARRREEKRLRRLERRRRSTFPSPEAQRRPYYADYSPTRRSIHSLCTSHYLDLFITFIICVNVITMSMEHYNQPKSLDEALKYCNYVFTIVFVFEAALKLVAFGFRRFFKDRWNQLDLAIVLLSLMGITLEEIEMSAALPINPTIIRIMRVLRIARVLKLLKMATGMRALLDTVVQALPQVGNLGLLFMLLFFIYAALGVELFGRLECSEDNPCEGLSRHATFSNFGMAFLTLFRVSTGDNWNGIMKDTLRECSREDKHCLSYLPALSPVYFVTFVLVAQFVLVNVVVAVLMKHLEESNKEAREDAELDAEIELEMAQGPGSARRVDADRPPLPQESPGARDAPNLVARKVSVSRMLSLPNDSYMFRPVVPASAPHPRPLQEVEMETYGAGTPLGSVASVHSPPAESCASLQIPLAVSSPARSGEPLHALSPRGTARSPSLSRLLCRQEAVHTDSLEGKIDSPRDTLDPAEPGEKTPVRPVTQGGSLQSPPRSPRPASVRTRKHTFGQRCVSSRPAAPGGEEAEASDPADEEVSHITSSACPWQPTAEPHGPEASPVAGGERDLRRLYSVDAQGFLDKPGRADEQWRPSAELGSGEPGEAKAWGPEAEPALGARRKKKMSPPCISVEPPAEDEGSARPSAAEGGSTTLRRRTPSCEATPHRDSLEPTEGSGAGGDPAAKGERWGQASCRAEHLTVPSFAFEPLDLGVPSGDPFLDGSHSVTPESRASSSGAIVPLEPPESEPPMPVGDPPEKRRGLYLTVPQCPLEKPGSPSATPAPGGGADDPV

Cytochrome P450 3A4 = Cytochrome P450 3A4 (Homo sapiens, UniProt P08684);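 further: CYP3A4 tested as one member of a cytochrome P450 panel screen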
Sequence of Cytochrome P450 3A4 (P08684 whole entry): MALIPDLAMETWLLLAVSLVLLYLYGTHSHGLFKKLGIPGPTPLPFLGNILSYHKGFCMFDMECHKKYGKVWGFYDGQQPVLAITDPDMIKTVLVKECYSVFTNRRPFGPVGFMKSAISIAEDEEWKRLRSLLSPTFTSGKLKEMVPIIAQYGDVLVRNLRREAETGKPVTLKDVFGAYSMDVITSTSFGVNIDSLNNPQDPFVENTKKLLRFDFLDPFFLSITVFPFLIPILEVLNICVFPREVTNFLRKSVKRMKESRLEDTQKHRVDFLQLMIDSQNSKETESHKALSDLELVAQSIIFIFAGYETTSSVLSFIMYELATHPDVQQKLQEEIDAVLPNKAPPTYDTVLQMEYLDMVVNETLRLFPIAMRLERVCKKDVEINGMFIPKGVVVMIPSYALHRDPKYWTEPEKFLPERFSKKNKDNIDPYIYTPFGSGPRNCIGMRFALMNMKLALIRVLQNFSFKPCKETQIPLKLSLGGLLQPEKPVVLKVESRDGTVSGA

[16] = target: T4, Dual specificity protein phosphatase 6 (Rattus norvegicus, UniProt Q64346)
T4 sequence (Q64346 whole entry): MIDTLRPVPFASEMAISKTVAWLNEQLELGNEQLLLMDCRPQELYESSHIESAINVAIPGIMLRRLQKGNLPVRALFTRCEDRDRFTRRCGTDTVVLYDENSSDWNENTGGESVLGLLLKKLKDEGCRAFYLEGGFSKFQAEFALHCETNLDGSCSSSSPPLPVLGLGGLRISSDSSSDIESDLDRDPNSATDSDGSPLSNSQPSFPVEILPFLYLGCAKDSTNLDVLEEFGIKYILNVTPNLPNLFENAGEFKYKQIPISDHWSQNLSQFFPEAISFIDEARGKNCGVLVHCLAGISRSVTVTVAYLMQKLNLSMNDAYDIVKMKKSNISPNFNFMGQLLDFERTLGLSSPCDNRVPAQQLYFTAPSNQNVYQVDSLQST

[17] = target: T4, Dual specificity protein phosphatase 6; assay type: functional

Sequence of Intestinal-type alkaline phosphatase (P09923 whole entry): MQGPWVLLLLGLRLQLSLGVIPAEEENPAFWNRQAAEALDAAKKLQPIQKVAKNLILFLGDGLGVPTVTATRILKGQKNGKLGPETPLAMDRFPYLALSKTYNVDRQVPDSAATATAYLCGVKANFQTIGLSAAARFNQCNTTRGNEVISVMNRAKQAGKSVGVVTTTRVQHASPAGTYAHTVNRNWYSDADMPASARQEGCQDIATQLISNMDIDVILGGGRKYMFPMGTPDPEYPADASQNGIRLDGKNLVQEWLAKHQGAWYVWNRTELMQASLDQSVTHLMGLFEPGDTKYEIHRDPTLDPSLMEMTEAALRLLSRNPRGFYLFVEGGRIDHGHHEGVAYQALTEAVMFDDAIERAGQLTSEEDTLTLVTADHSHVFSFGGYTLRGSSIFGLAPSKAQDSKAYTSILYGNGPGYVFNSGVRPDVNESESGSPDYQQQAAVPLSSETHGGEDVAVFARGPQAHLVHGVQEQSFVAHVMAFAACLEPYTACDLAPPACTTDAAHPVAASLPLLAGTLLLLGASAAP

COc1cc(Cl)ccc1OCc1cc(C(=O)N2CCCCCCC2)no1
IC50 [1]: > 100 µM (inactive)

CCSS(=O)(=O)c1cccc2cccnc12
IC50 (Large T antigen): > 100 µM (active)
IC50 [2]: > 100 µM (inactive)
IC50 [3]: 12.7 µM (active)

COc1ccc(C(C(=O)NC2CCCCC2)N(C(=O)CCl)c2ccc(Cl)cc2)cc1 (configuration not stated)
EC50 (BJ [4]): 0.152 µM (active)
EC50 (BJ [5]): 2.51 µM (active)
EC50 [6]: 0.166 µM (active)
EC50 [7]: 1.23 µM (active)
EC50 (BJ [8]): 4.11 µM (inconclusive)
EC50 [9]: 0.681 µM (active)
IC50 [10]: > 80 µM (inactive)
AC50 [11]: 0.774 µM (active)
EC50 (Protein RecA): 0.236 µM (active)
IC50 (Protein Wnt-3a): 3.16 µM (active)

CCCCc1ccc(S(=O)(=O)Nc2cnc3ccccc3c2)cc1
IC50 [12]: > 100 µM (not active)
IC50 [13]: > 100 µM (inactive)

COC(=O)CSc1nnc(S)s1
IC50 [2]: > 100 µM (inactive)
IC50 [3]: 17 µM (active)

COC(=O)c1cc(C#N)c(Oc2ccccc2OC)nc1C
IC50 [1]: > 100 µM (inactive)

O=C(c1cnn2c(C(F)(F)F)cc(-c3cccs3)nc12)N1CCN(C(c2ccccc2)c2ccccc2)CC1
CC50 [14]: > 40 µM (active)
EC50 [15]: 6.75 µM (active)

O=C(Cc1ncc(C(F)(F)F)cc1Cl)Nc1cccc(Br)c1
EC50 [15]: 4.24 µM (active)
AC50 (Cytochrome P450 3A4): 14.1 µM (inconclusive)

CCOc1ccc(NC(=O)CSc2nncn2C)cc1
IC50 [1]: > 100 µM (inactive)

O=S(=O)(O)c1ccc2cc(/N=N/c3cc(S(=O)(=O)O)c4cccnc4c3O)ccc2c1
IC50 [12]: > 100 µM (not active)
IC50 [16]: 5.1 µM (active)
IC50 [17]: 4.19 µM (active)
